# Patent US4443448A, “Indane derivatives, pharmaceutical compositions thereof and method of preparation” (priority 1980, dated 1984)
# Where two headings read alike, the source gives them in different places.
# Key:
# amphetamine = assay: Amphetamine antagonism in rats; type: in vivo; conditions: Rattus norvegicus, po, rats, p.o., amphetamine 10 mg/kg base i.v.; read-out: Amphetamine antag. ED50 p.o.
# Description: Amphetamine antagonism (ED50 mg/kg i.p.)
# (§1) Perspex observation cages without bottom and lid, consisting of 5 sections each measuring 12×25×30 cm.
# The test substance is given p.o. in a reasonable dose based on the determined LD50. Two or 24 hours later an intravaneous injection of amphetamine sulphate 13.6 mg/kg (10 mg/kg amphetamine base) is given, after which the rats are placed individually in the cages. The cages are placed on white corrugated paper. Five rats are used for each dose level. Observations are made after 55 minutes and 65 minutes-observation time: 1 minute. The animals are observed for stereotypy (movements of the head, compulsive gnawing). […] If the compound has full antagonistic effect another group of rats is used at a lower dose. […] The result is stated as fractions: 0/5, 1/5, 2/5, 3/5, 4/5 and 5/5, where 0, 1, 2, 3, 4 and 5 indicate the number of rats which have not shown stereotypy at the dose in question. The results are calculated as ED50 in mg/kg.
# in vivo [1] = assay: in vivo; parameters: species or system rats; conditions: for Ratio catalep./Amphet.: catalepsy ED50 / amphetamine antagonism ED50; for ED50: rat, in vivo, po, rats, p.o., strongest effect within first 6 hours, read-out: Catalep. (catalepsy wire mesh, rat, max, ED50)
# Description: A vertical wire netting (50 cm×49 cm). The meshes (openings) of the netting are square (1 cm×1 cm). The wire diameter is 2 mm.
# The animals are labeled and used in groups of five. The test substance is administered orally (p.o) at 4 dose levels selected from the fixed dose scale.
# The animals are placed in the middle of the vertical wire netting 60, 120, 180, 240, 300 and 360 minutes after administration of the test compound. The animals are considered cataleptic when they remain immobile during a period of 15 seconds.
# This cataleptic reaction is designated +. If the rats are "atonic" and passively slide down the wire mesh they are considered not cataleptic. If the animals climb up and down the wire mesh they are nor cataleptic.
# In both situations the designation--is used.
# [2] = Mouse grid shock (analgesia); type: in vivo; conditions: mice, minimal effective dose, in mg/kg
# Description: The mouse grid consists of a perspex cage with wire grid bottom and a perspex lid, on which is placed a microphone sensitive to the frequency of a mouse squeak. A stimulator with motordriven potentiometer applies a sequence of square wave impulses of continuously increasing milliamperage to the grid. Frequency of impulses 20 cycles/sec., duration 5 msec. Milliamperage is recorded on a digital amperemeter connected to the stimulator. Activation of the microphone by a mouse-squeak cuts off the current and the final milliamperage appears on the meter.
# Five mice are used for each dose level. Each mouse serves as its own control.
# Prior to the administration of test substance the animals are placed on the grid one at a time, and the pain threshold is determined by increasing the current intensity until the mouse squeaks. The pain threshold may be read on the milliamperemeter. Fifteen minutes and 30 minutes after administration of test substance the mice are tested again and the pain thresholds recorded.
# Analgesic effect is present, when the pain threshold is increased over the pre-dosing value (control value). The results are stated as % increase in pain threshold calculated on the basis of the control value.
# The registration can also be done as an on-line procedure. In this case the punching instruction and punching cards will be provided automatically and the results will be registered as a minimal effective dose (MED) determined after van der Waerdens X-test.
# methylphenidate = assay: Methylphenidate antagonism in mice; type: in vivo; conditions: for ED50: Mus musculus, ip
# Description: Methylphenidate antagonism (ED50 mg/kg i.p.)
# as §1
# 3×2 mice are used for each dose level. Two or 24 hours after injection of test substance, methylphenidate, 60 mg/kg, is injected s.c. After administration of methylphenidate the mice are placed in the observation cages, 2 in each cage, where they remain for exactly 1 hour. The cages were placed on corrugated paper, the corrugations facing upwards. It is examined whether the mice have been biting the corrugated paper or not. […] If one or more of the control pairs have not been biting, the test has to be repeated on a new set of mice.
# The result is stated in fractions: 0/3, 1/3, 2/3 and 3/3 where 0, 1, 2 and 3 are the number of pairs which have not been biting on receipt of the dose in question.
# in vivo [3] = conditions: iv
# [4] = 2 h, read-out: MePh antag. ED50 2 hr i.p., mice, test substance i.p., 2 hr before methylphenidate 60 mg/kg s.c.
# [5] = read-out: MePh antag. ED50 2 hr i.p., mice, test substance i.p., 2 hr before methylphenidate 60 mg/kg s.c.
SMILES,ED50 (amphetamine),Ratio catalep./Amphet. (in vivo [1]),ED50 (in vivo [1]),MED Grid Shock [2],ED50 (methylphenidate; [4]),LD50 (in vivo [3]),ED50 (methylphenidate; [5]),"MePh antag. ED50 2 hr i.p. (methylphenidate; mice, test substance i.p., 2 hr before methylphenidate 60 mg/kg s.c.)"
"OCCN1CCN([C@@H]2C[C@@H](c3ccc(F)cc3)c3ccc(F)cc32)CC1 (relative stereo) [Lu 13-117, 1-(2-hydroxyethyl)-4-(3-(4'-fluorophenyl)-6-fluoro-1-indanyl)piperazine]",6 mg/kg,13,79 mg/kg,0.63,3 mg/kg,113 mg/kg,–,–
CN1CCN([C@@H]2C[C@@H](c3ccccc3)c3ccc(Cl)cc32)CC1 (relative stereo) [Lu 14-063],> 40 mg/kg,–,> 40 mg/kg,5,29 mg/kg,80 mg/kg,–,–
CN1CCN([C@@H]2C[C@H](c3ccc(F)cc3)c3ccc(Cl)cc32)CC1 (relative stereo) [Lu 14-069],> 20 mg/kg,–,> 40 mg/kg,5,5.7 mg/kg,65 mg/kg,–,–
Cc1ccc2c(c1)[C@H](N1CCN(C)CC1)C[C@H]2c1ccc(F)cc1 (relative stereo) [Lu 17-048],6.7 mg/kg,0.7,4.8 mg/kg,0.16,0.6 mg/kg,80 mg/kg,–,–
Cc1ccc2c(c1)[C@H](N1CCN(CCO)CC1)C[C@H]2c1ccc(F)cc1 (relative stereo) [Lu 17-050],9.4 mg/kg,0.8,7.7 mg/kg,0.63,3.4 mg/kg,80 mg/kg,–,–
CSc1ccc2c(c1)[C@H](N1CCN(CCO)CC1)C[C@H]2c1ccc(F)cc1 (relative stereo) [Lu 17-053],9.1 mg/kg,–,6.2 mg/kg,2.5,1.3 mg/kg,68 mg/kg,–,–
CSc1ccc2c(c1)[C@H](N1CCN(C)CC1)C[C@H]2c1ccc(F)cc1 (relative stereo) [Lu 17-055],10 mg/kg,0.7,7.2 mg/kg,5,1.2 mg/kg,68 mg/kg,–,–
CSc1ccc2c(c1)[C@H](N1CCN(C)CC1)C[C@@H]2c1ccc(F)cc1 (relative stereo) [Lu 17-056],–,–,–,5,20 mg/kg,–,–,–
O[C@H]1CC[C@H](CN2CCN(C3CC(c4ccc(F)cc4)c4ccc(F)cc43)CC2)CC1 (relative stereo) [Lu 17-059],28 mg/kg,> 1.4,> 40 mg/kg,5,4.3 mg/kg,94 mg/kg,–,–
OCCN1CCN([C@@H]2C[C@@H](c3ccccc3)c3ccccc32)CC1 (relative stereo) [Lu 17-061],–,–,–,10,> 40 mg/kg,–,–,–
OCCN1CCN([C@@H]2C[C@@H](c3ccc(F)cc3)c3cc(F)ccc32)CC1 (relative stereo) [Lu 17-075],> 40 mg/kg,–,> 40 mg/kg,2.5,6 mg/kg,80 mg/kg,–,–
CN1CCN([C@@H]2C[C@@H](c3ccccc3)c3ccccc32)CC1 (relative stereo) [Lu 17-091],–,–,–,10,> 40 mg/kg,–,–,–
OCCN1CCN([C@@H]2C[C@@H](c3ccc(F)cc3)c3cc(Cl)ccc32)CC1 (relative stereo) [Lu 17-116],–,–,–,10,> 40 mg/kg,–,–,–
OCCN1CCN([C@@H]2C[C@H](c3ccc(F)cc3)c3ccc(Cl)cc32)CC1 (relative stereo) [Lu 17-120],–,–,> 20 mg/kg,2.5,3.2 mg/kg,–,–,–
CN1CCN([C@@H]2C[C@@H](c3ccc(F)cc3)c3ccc(Cl)cc32)CC1 (relative stereo) [Lu 17-121],10 mg/kg,0.3,3 mg/kg,0.63,2 mg/kg,68 mg/kg,–,–
OCCN1CCN([C@@H]2C[C@H](c3ccc(F)cc3)c3ccccc32)CC1 (relative stereo) [Lu 17-124],–,–,–,5,> 40 mg/kg,–,–,–

SMILES,ED50 (amphetamine),Ratio catalep./Amphet. (in vivo [1]),ED50 (in vivo [1]),MED Grid Shock [2],ED50 (methylphenidate; [4]),LD50 (in vivo [3]),ED50 (methylphenidate; [5]),"MePh antag. ED50 2 hr i.p. (methylphenidate; mice, test substance i.p., 2 hr before methylphenidate 60 mg/kg s.c.)"
O=C1OCCN1CCN1CCN(C2CC(c3ccc(F)cc3)c3ccc(F)cc32)CC1 (stereo not drawn) [Lu 17-039],51 mg/kg,–,> 80 mg/kg,–,9.1 mg/kg,113 mg/kg,–,–
O=C1NCCN1CCN1CCN(C2CC(c3ccc(F)cc3)c3ccc(F)cc32)CC1 (stereo not drawn) [Lu 17-045],> 80 mg/kg,–,> 80 mg/kg,2.5,> 40 mg/kg,–,–,–
CN1CCN(C2CC(c3ccc(F)cc3)c3cc(F)ccc32)CC1 (stereo not drawn) [Lu 17-071],–,–,31 mg/kg,10,> 40 mg/kg,–,–,–
Cc1ccc2c(c1)C(N1CCN(CC3CC3)CC1)CC2c1ccc(F)cc1 (stereo not drawn) [Lu 17-130],> 40 mg/kg,–,> 40 mg/kg,5,5 mg/kg,–,–,–
O=C(CCCN1CCN(C2CC(c3ccc(F)cc3)c3ccc(F)cc32)CC1)c1ccc(F)cc1 (stereo not drawn) [Lu 17-145],–,–,–,5,> 40 mg/kg,–,–,–
CS(=O)(=O)c1ccc2c(c1)C(N1CCN(CCO)CC1)CC2c1ccc(F)cc1 (stereo not drawn) [Lu 18-041],–,–,–,5,10 mg/kg,> 160 mg/kg,–,–
"OCC(CO)N1CCN(C2CC(c3ccc(F)cc3)c3ccc(F)cc32)CC1 (stereo not drawn) [Lu 18-134, 1-(1,3-dihydroxy-2-propy)-4-(3-(4'-fluorophenyl)-6-fluoro-1-indanyl)piperazine]",11.7 mg/kg,4.9,57 mg/kg,< 5,1.9 mg/kg,–,–,–
"Fc1ccc(C2CC(N3CCN(CC4CC4)CC3)c3cc(F)ccc32)cc1 (stereo not drawn) [Lu 18-157, 1-cyclopropylmethyl-4-(3-(4'-fluorophenyl)-6-fluoro-1-indanyl)piperazine]",–,–,–,–,5 mg/kg,68 mg/kg,–,–
Fc1ccc(C2CC(N3CCN(CCc4ccccc4)CC3)c3cc(F)ccc32)cc1 (stereo not drawn) [Lu 18-159],–,–,–,–,15 mg/kg,40 mg/kg,–,–
"Fc1ccc(C2CC(N3CCN(CC=Cc4ccccc4)CC3)c3cc(F)ccc32)cc1 (stereo not drawn) [Lu 18-162, 1-(3-phenyl-2-propenyl)-4-(3-(4'-fluorophenyl)-6-fluoro-1-indanyl)piperazine]",–,–,–,–,29 mg/kg,–,–,–
OCCCCN1CCN(C2CC(c3ccc(F)cc3)c3ccc(C(F)(F)F)cc32)CC1 (stereo not drawn) [Lu 18-182],0.2 mg/kg,–,0.2 mg/kg,–,0.2 mg/kg,56 mg/kg,–,–
OCC(CO)N1CCN(C2CC(c3ccc(F)cc3)c3ccc(C(F)(F)F)cc32)CC1 (stereo not drawn) [Lu 18-185],0.3 mg/kg,–,0.3 mg/kg,–,0.2 mg/kg,–,–,–
"COc1ccc2c3c1O[C@H]1[C@@H](O)C=C[C@H]4[C@@H](C2)N(C)CC[C@@]341 [codeine, reference compound]",–,–,–,20,–,110 mg/kg,> 20 mg/kg,–
"CCC(=O)O[C@](Cc1ccccc1)(c1ccccc1)[C@H](C)CN(C)C [dextropropoxyphene, reference compound]",–,–,–,20,–,34 mg/kg,> 20 mg/kg,–
"CN1CC[C@]23c4c5ccc(O)c4O[C@H]2[C@@H](O)C=C[C@H]3[C@H]1C5 [morfine, reference compound]",–,–,–,2.5,–,–,–,> 40 mg/kg
